According to patent publication US20230200390A1, “SELECTIVE HERBICIDES BASED ON SUBSTITUTED ISOXAZOLIN CARBOXAMIDES AND MEFENPYR-DIETHYL” (BAYER AKTIENGESELLSCHAFT, priority 2020, published 2023):

How the values were obtained:
Format in all cases: in vivo
[1] = test system: spring wheat, TRZAS Triso; experiment: Seed treatment with safener; post-emergence herbicide, crop damage; conditions: 21 DAT; for HER effect + SAF [%] (crop damage) / Reduction [%] / Reduction [Difference]: mefenpyr-diethyl 0.5 g a.i./kg seed; for HER effect [%] (crop damage, herbicide without safener): no safener
Method in brief: (§1)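 Wheat and barley seeds were coated with safener (g a.i./kg seed) in a slurry prediluted with milk, then sown and grown to BBCH 12. WP herbicides with 1 l/ha MERO in 300 l/ha water were sprayed post-emergence, with untreated-seed plants as reference. Crop damage (%) was scored visually at 10 and 21 DAT.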

[2] = test system: spring barley, HORVS Montoya; experiment: as above; conditions: 21 DAT; for HER effect + SAF / Reduction [%] / Reduction [Difference]: mefenpyr-diethyl 0.5 g a.i./kg seed
Method in brief: as §1

[3] = test system: spring wheat, TRZAS Triso; experiment: Seed treatment with safener; pre-emergence herbicide, crop damage; conditions: for HER effect + SAF / Reduction [%] / Reduction [Difference]: mefenpyr-diethyl 0.25 g a.i./kg seed
Description: (§2) For the safener seed treatment, sufficient seeds of the respective crops (spring wheat, TRZAS; spring barley, HORVS; maize, ZEAMA) were weighed into screw top glass bottles approximately twice the volume of the seeds.
(§3) The specified safeners, formulated as wettable powder (WP) were weighed out so that the specified rates (g a.i./kg seed) would be obtained, dissolved in water (1 ml water per 10 g of seeds), and added to the seeds to produce a slurry.
(§4) The bottles were capped and then placed in an overhead shaker (set at medium speed for ca. 60 minutes) so that the seeds were evenly coated with the slurry. The bottles were uncapped and the seeds were either placed on paper and dried for an interval of 3-4 hours prior to sowing, or directly sown. Seeds were placed in sandy loam soil in pots of a diameter of 7-8 cm, and covered with soil.
(§5) Pre-emergence application of the specified herbicides was done subsequently, on two sets of plants:
(§6) a) seed treatment with safener, as described above
(§7) The herbicides were formulated as WP and was sprayed onto the soil surface as an aqueous suspension at an equivalent water application rate of 300 l/ha.
(§8) After application, the test plants were kept in the greenhouse under good growth conditions. At intervals up to 4 weeks after application (=28 days after treatment; DAT), % crop damage observed on the treated plants was scored visually in comparison to control plants that had not received any safener or herbicide treatment.
(§9) Values in the table below are mean values of at least 2 replicates.

[4] = test system: spring barley, HORVS Montoya; experiment: as above; conditions: for HER effect + SAF / Reduction [%] / Reduction [Difference]: mefenpyr-diethyl 0.25 g a.i./kg seed
Description: as §2, §3, §4, §5, §6, §7, §8, §9

[5] = test system: spring wheat, TRZAS Triso; experiment: Tank-mix; post-emergence: crop damage by herbicide with/without safener mefenpyr-diethyl; conditions: 21 DAT
Method in brief: (§10)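 Greenhouse-grown spring wheat and barley treated post-emergence at 1–3-leaf stage with herbicide alone or tank-mixed with safener, sprayed at various dosages in 300 l/ha water. Crop injury scored visually 1–3 weeks after treatment as % vs untreated (0 none, 100 complete kill).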

[6] = test system: spring barley, HORVS Montoya; experiment: as above; conditions: 21 DAT
Method in brief: as §10

[7] = HER 0.5 g a.i./ha post-emergence
[8] = HER 5 g a.i./ha pre-emergence, 11 DAT (Interim)
[9] = HER 5 g a.i./ha pre-emergence, 21 DAT (Final)
[10] = HER 15 g a.i./ha pre-emergence, 11 DAT (Interim)
[11] = HER 15 g a.i./ha pre-emergence, 21 DAT (Final)
[12] = herbicide alone 5 g a.i./ha pre-emergence, 11 DAT (Interim)
[13] = herbicide alone 5 g a.i./ha pre-emergence, 21 DAT (Final)
[14] = herbicide alone 15 g a.i./ha pre-emergence, 11 DAT (Interim)
[15] = herbicide alone 15 g a.i./ha pre-emergence, 21 DAT (Final)
[16] = HER 1 g a.i./ha + mefenpyr-diethyl 50 g a.i./ha
[17] = HER 4 g a.i./ha + mefenpyr-diethyl 100 g a.i./ha
[18] = HER 0.5 g a.i./ha + mefenpyr-diethyl 50 g a.i./ha
[19] = HER 2 g a.i./ha + mefenpyr-diethyl 100 g a.i./ha

Structure (SMILES): C=CC1(C(=O)NC2COC(C(=O)OC)C2)CC(c2cc(F)cc(F)c2)=NO1 (mixture of isomers) [Example 1.68]
- HER effect + SAF [%] (crop damage) ([1]; HER dose 1 g a.i./ha): 20%
- Reduction [%] ([1]; HER dose 1 g a.i./ha): 75%
- Reduction [Difference] ([1]; HER dose 1 g a.i./ha): 60
- HER effect [%] (crop damage, herbicide without safener) ([1]; HER dose 1 g a.i./ha): 80%
- HER effect + SAF [%] (crop damage) ([1]; HER dose 4 g a.i./ha): 30%
- Reduction [%] ([1]; HER dose 4 g a.i./ha): 65%
- Reduction [Difference] ([1]; HER dose 4 g a.i./ha): 55
- HER effect [%] (crop damage, herbicide without safener) ([1]; HER dose 4 g a.i./ha): 85%
- HER effect + SAF [2, 7]: 0%
- Reduction [%] [2, 7]: 100%
- Reduction [Difference] [2, 7]: 30
- HER effect + SAF ([2]; HER 2 g a.i./ha post-emergence): 0%
- Reduction [%] ([2]; HER 2 g a.i./ha post-emergence): 100%
- Reduction [Difference] ([2]; HER 2 g a.i./ha post-emergence): 40
- HER effect ([2]; herbicide alone 0.5 g a.i./ha post-emergence): 30%
- HER effect ([2]; herbicide alone 2 g a.i./ha post-emergence): 40%
- HER effect + SAF [3, 8]: 15%
- Reduction [%] [3, 8]: 67%
- Reduction [Difference] [3, 8]: 30
- HER effect + SAF [3, 9]: 5%
- Reduction [%] [3, 9]: 89%
- Reduction [Difference] [3, 9]: 40
- HER effect + SAF [3, 10]: 30%
- Reduction [%] [3, 10]: 63%
- Reduction [Difference] [3, 10]: 50
- HER effect + SAF [3, 11]: 30%
- Reduction [%] [3, 11]: 65%
- Reduction [Difference] [3, 11]: 55
- HER effect [3, 12]: 45%
- HER effect [3, 13]: 45%
- HER effect [3, 14]: 80%
- HER effect [3, 15]: 85%
- HER effect + SAF [4, 8]: 5%
- Reduction [%] [4, 8]: 80%
- Reduction [Difference] [4, 8]: 20
- HER effect + SAF [4, 9]: 5%
- Reduction [%] [4, 9]: 83%
- Reduction [Difference] [4, 9]: 25
- HER effect + SAF [4, 10]: 0%
- Reduction [%] [4, 10]: 100%
- Reduction [Difference] [4, 10]: 65
- HER effect + SAF [4, 11]: 60%
- Reduction [%] [4, 11]: 25%
- Reduction [Difference] [4, 11]: 20
- HER effect [4, 12]: 25%
- HER effect [4, 13]: 30%
- HER effect [4, 14]: 65%
- HER effect [4, 15]: 80%
- HER effect + SAF [5, 16]: 30%
- Reduction [%] [5, 16]: 63%
- Reduction [Difference] [5, 16]: 50
- HER effect + SAF [5, 17]: 60%
- Reduction [%] [5, 17]: 29%
- Reduction [Difference] [5, 17]: 25
- HER effect ([5]; herbicide alone 1 g a.i./ha): 80%
- HER effect ([5]; herbicide alone 4 g a.i./ha): 85%
- HER effect + SAF [6, 18]: 0%
- Reduction [%] [6, 18]: 100%
- Reduction [Difference] [6, 18]: 30
- HER effect + SAF [6, 19]: 10%
- Reduction [%] [6, 19]: 75%
- Reduction [Difference] [6, 19]: 30
- HER effect ([6]; herbicide alone 0.5 g a.i./ha): 30%
- HER effect ([6]; herbicide alone 2 g a.i./ha): 40%
